Laboratory results as given in ChEMBL document CHEMBL3400005, “Thermodynamic equilibrium solubility measurements in simulated fluids by 96-well plate method in early drug discovery” (Bioorg Med Chem Lett, 2015).
≈ marks a conversion by molar mass, not a printed value.

Legend:
physchem [1] = details: pH 6.8
physchem [2] = details: pH 6.8; remark: listed apart in the source
physchem [3] = details: water
physchem [4] = details: pH 7.4
physchem [5] = details: water; remark: listed apart in the source
physchem [6] = details: pH 1.2
physchem [7] = details: PBS, pH 7.4
physchem [8] = details: pH 1.2; remark: listed apart in the source
physchem [9] = assay: physchem

Row | SMILES | solubility thermodynamic at 24 h (physchem [1]; simulated intestinal fluid) | solubility thermodynamic at 4 h (physchem [2]; simulated intestinal fluid) | solubility thermodynamic at 24 h (physchem [3]) | solubility thermodynamic at 4 h (physchem [4]; PBS) | solubility thermodynamic at 4 h (physchem [5]) | solubility thermodynamic at 4 h (physchem [6]; simulated gastric fluid) | solubility thermodynamic at 24 h (physchem [7]) | solubility thermodynamic at 24 h (physchem [8]; simulated gastric fluid) | solubility thermodynamic (physchem [9]) | solubility thermodynamic at 24 h (physchem [1]; simulated gi fluid) | solubility thermodynamic at 4 h (physchem [2]; simulated gi fluid) | solubility thermodynamic at 4 h (physchem [4]; buffer) | solubility thermodynamic at 4 h (physchem [6]; simulated gi fluid) | solubility thermodynamic at 24 h (physchem [8]; simulated gi fluid)
1 | CCCc1nc2c(C)cc(-c3nc4ccccc4n3C)cc2n1Cc1ccc(-c2ccccc2C(=O)O)cc1 | 2.29 µM (≈ 1.18 µg/mL) | 1.95 µM (≈ 1 µg/mL) | 29.5 µM (≈ 15.2 µg/mL) | 7.76 µM (≈ 3.99 µg/mL) | 3.89 µM (≈ 2 µg/mL) | 38.9 µM (≈ 20 µg/mL) | 6.46 µM (≈ 3.32 µg/mL) | 40.7 µM (≈ 21 µg/mL) | – | – | – | – | – | –
2 | CC(C(=O)[O-])c1ccc(-c2ccccc2)c(F)c1.[Na+] (centres undefined) | – | 4.07 µM | – | 162 µM | 331 µM | 33.1 µM | – | – | – | – | – | – | – | –
3 | CC(=O)N[C@@H](CS)C(=O)O [ACETYLCYSTEINE] | – | 6.17 µM (≈ 1.01 µg/mL) | – | 12.3 µM (≈ 2.01 µg/mL) | 24.5 µM (≈ 4.01 µg/mL) | 6.17 µM (≈ 1.01 µg/mL) | – | – | – | – | – | – | – | –
4 | CCCSc1ccc2nc(NC(=O)OC)[nH]c2c1 [ALBENDAZOLE] | 0.759 µM (≈ 0.201 µg/mL) | 1.91 µM (≈ 0.506 µg/mL) | 0.049 µM (≈ 0.013 µg/mL) | 1.91 µM (≈ 0.506 µg/mL) | 0.38 µM (≈ 0.101 µg/mL) | 151 µM (≈ 40.2 µg/mL) | 12.9 µM (≈ 3.42 µg/mL) | 204 µM (≈ 54.2 µg/mL) | 0.49 µM (≈ 0.13 µg/mL) | – | – | – | – | –
5 | C[C@@H]1[C@H](O)[C@@H](C)/C=C/C=C/C=C/C=C/C=C/C=C/C=C/[C@H](O[C@@H]2O[C@H](C)[C@@H](O)[C@H](N)[C@@H]2O)C[C@@H]2O[C@](O)(C[C@@H](O)C[C@@H](O)[C@H](O)CC[C@@H](O)C[C@@H](O)CC(=O)O[C@H]1C)C[C@H](O)[C@H]2C(=O)O [AMPHOTERICIN B] | 3.8 µM (≈ 3.51 µg/mL) | 4.37 µM (≈ 4.03 µg/mL) | 22.9 µM (≈ 21.2 µg/mL) | 21.9 µM (≈ 20.2 µg/mL) | 21.9 µM (≈ 20.2 µg/mL) | 13.5 µM (≈ 12.5 µg/mL) | 26.3 µM (≈ 24.3 µg/mL) | 11.2 µM (≈ 10.4 µg/mL) | 81.3 µM (≈ 75.1 µg/mL) | – | – | – | – | –
6 | CC(C)(C#N)c1cc(Cn2cncn2)cc(C(C)(C)C#N)c1 [ANASTROZOLE] | 0.692 µM (≈ 0.203 µg/mL) | 1.7 µM (≈ 0.498 µg/mL) | 0.148 µM (≈ 0.0434 µg/mL) | 0.339 µM (≈ 0.0994 µg/mL) | 0.339 µM (≈ 0.0994 µg/mL) | 1.7 µM (≈ 0.498 µg/mL) | 0.105 µM (≈ 0.0307 µg/mL) | 0.178 µM (≈ 0.0522 µg/mL) | – | – | – | – | – | –
7 | CN1C(=N)N(C)/C(=C/c2c[nH]c3ccccc23)C1=O [APLYSINOPSIN] | – | 0.389 µM (≈ 0.0989 µg/mL) | – | 56.2 µM (≈ 14.3 µg/mL) | 31.6 µM (≈ 8.04 µg/mL) | 79.4 µM (≈ 20.2 µg/mL) | – | – | – | – | – | – | – | –
8 | CC(=O)Oc1ccccc1C(=O)O [ASPIRIN] | – | – | – | – | – | – | – | – | – | 3.72 µM (≈ 0.669 µg/mL) | 2.75 µM (≈ 0.496 µg/mL) | 5010 µM (≈ 903 µg/mL) | 3310 µM (≈ 597 µg/mL) | 1450 µM (≈ 260 µg/mL)
9 | COc1ccc2cc3[n+](cc2c1OC)CCc1cc2c(cc1-3)OCO2.[Cl-] [BERBERINE CHLORIDE] | – | 398 µM | – | 21.4 µM | 214 µM | 33.9 µM | – | – | 537 µM | – | – | – | – | –
10 | CC(C)=CC[C@H]1C[C@@]23C[C@@H](CC=C(C)C)C(C)(C)[C@@](CC=C(C)C)(C(=O)C(C(=O)c4ccc(O)c(O)c4)=C2OC1(C)C)C3=O [CAMBOGIN] | – | 0.851 µM (≈ 0.513 µg/mL) | – | 0.851 µM (≈ 0.513 µg/mL) | 0.851 µM (≈ 0.513 µg/mL) | 0.851 µM (≈ 0.513 µg/mL) | – | – | – | – | – | – | – | –
11 | CC[C@H]1OC(=O)[C@H](C)[C@@H](O[C@H]2C[C@@](C)(OC)[C@@H](O)[C@H](C)O2)[C@H](C)[C@@H](O[C@@H]2O[C@H](C)C[C@H](N(C)C)[C@H]2O)[C@](C)(OC)C[C@@H](C)C(=O)[C@H](C)[C@@H](O)[C@]1(C)O [CLARITHROMYCIN] | – | 1.35 µM (≈ 1.01 µg/mL) | – | 0.676 µM (≈ 0.506 µg/mL) | 0.676 µM (≈ 0.506 µg/mL) | 0.676 µM (≈ 0.506 µg/mL) | – | – | 0.0447 µM (≈ 0.0334 µg/mL) | – | – | – | – | –
12 | Clc1ccccc1C(c1ccccc1)(c1ccccc1)n1ccnc1 [CLOTRIMAZOLE] | – | 0.288 µM (≈ 0.0995 µg/mL) | – | 11.5 µM (≈ 3.96 µg/mL) | 10 µM (≈ 3.45 µg/mL) | 5.75 µM (≈ 1.98 µg/mL) | – | – | – | – | – | – | – | –
13 | CC(/C=C/C=C(\C)C(=O)O[C@@H]1O[C@H](CO[C@@H]2O[C@H](CO)[C@@H](O)[C@H](O)[C@H]2O)[C@@H](O)[C@H](O)[C@H]1O)=C\C=C\C=C(C)\C=C\C=C(/C)C(=O)O[C@@H]1O[C@H](CO[C@@H]2O[C@H](CO)[C@@H](O)[C@H](O)[C@H]2O)[C@@H](O)[C@H](O)[C@H]1O [CROCIN] | – | 155 µM (≈ 151 µg/mL) | – | 155 µM (≈ 151 µg/mL) | 155 µM (≈ 151 µg/mL) | 155 µM (≈ 151 µg/mL) | – | – | – | – | – | – | – | –
14 | CC(=O)O[C@@]12CO[C@@H]1C[C@H](O)[C@@]1(C)C(=O)[C@H](O)C3=C(C)[C@@H](OC(=O)[C@H](O)[C@@H](NC(=O)OC(C)(C)C)c4ccccc4)C[C@@](O)([C@@H](OC(=O)c4ccccc4)[C@H]21)C3(C)C.O.O.O [DOCETAXEL] | – | 1.23 µM | – | 2.45 µM | 5.37 µM | 0.617 µM | – | – | 0.871 µM | – | – | – | – | –
15 | CCCCCCCCCCCC1=C(O)C(=O)C=C(O)C1=O [EMBELIN] | – | 1.7 µM (≈ 0.5 µg/mL) | – | 1.7 µM (≈ 0.5 µg/mL) | 1.7 µM (≈ 0.5 µg/mL) | 1.7 µM (≈ 0.5 µg/mL) | – | – | 1.02 µM (≈ 0.301 µg/mL) | – | – | – | – | –
16 | C=C(C)[C@@H](CC=C(C)C)C[C@@]12C[C@@H](CC=C(C)C)C(C)(C)[C@@](CC=C(C)C)(C(=O)C(C(=O)c3ccc(O)c(O)c3)=C1O)C2=O [GARCINOL] | – | 6.61 µM (≈ 3.98 µg/mL) | – | 1.66 µM (≈ 1 µg/mL) | 1.66 µM (≈ 1 µg/mL) | 0.832 µM (≈ 0.501 µg/mL) | – | – | – | – | – | – | – | –
17 | NNC(=O)c1ccncc1 [ISONIAZID] | – | 288 µM (≈ 39.6 µg/mL) | – | 589 µM (≈ 80.8 µg/mL) | 589 µM (≈ 80.8 µg/mL) | 589 µM (≈ 80.8 µg/mL) | – | – | – | – | – | – | – | –
18 | O=c1c2cc(O)c(O)cc2oc2cc(O)c([C@@H]3O[C@H](CO)[C@@H](O)[C@H](O)[C@H]3O)c(O)c12 [MANGIFERIN] | – | 19.1 µM (≈ 8.05 µg/mL) | – | 47.9 µM (≈ 20.2 µg/mL) | 47.9 µM (≈ 20.2 µg/mL) | 19.1 µM (≈ 8.05 µg/mL) | – | – | – | – | – | – | – | –
19 | COc1ccc2[nH]c([S+]([O-])Cc3ncc(C)c(OC)c3C)nc2c1 (centres undefined) [OMEPRAZOLE] | – | 57.5 µM (≈ 19.9 µg/mL) | – | 229 µM (≈ 79.1 µg/mL) | 229 µM (≈ 79.1 µg/mL) | 437 µM (≈ 151 µg/mL) | – | – | 145 µM (≈ 49.9 µg/mL) | – | – | – | – | –
20 | O=C(/C=C/C=C/c1ccc2c(c1)OCO2)N1CCCCC1 [PIPERINE] | – | 70.8 µM (≈ 20.2 µg/mL) | – | 28.2 µM (≈ 8.04 µg/mL) | 70.8 µM (≈ 20.2 µg/mL) | 43.7 µM (≈ 12.5 µg/mL) | – | – | 14.1 µM (≈ 4.03 µg/mL) | – | – | – | – | –
21 | NC(=O)c1cnccn1 [PYRAZINAMIDE] | – | 7940 µM (≈ 978 µg/mL) | – | 5370 µM (≈ 661 µg/mL) | 5750 µM (≈ 708 µg/mL) | 5620 µM (≈ 692 µg/mL) | – | – | – | – | – | – | – | –
22 | CC[C@H]1OC(=O)[C@H](C)[C@@H](O[C@H]2C[C@@](C)(OC)[C@@H](O)[C@H](C)O2)[C@H](C)[C@@H](O[C@@H]2O[C@H](C)C[C@H](N(C)C)[C@H]2O)[C@](C)(O)C[C@@H](C)/C(=N\OCOCCOC)[C@H](C)[C@@H](O)[C@]1(C)O [ROXITHROMYCIN] | – | 0.603 µM (≈ 0.504 µg/mL) | – | 1.2 µM (≈ 1.01 µg/mL) | 0.603 µM (≈ 0.504 µg/mL) | 0.603 µM (≈ 0.504 µg/mL) | – | – | – | – | – | – | – | –
23 | [H]/N=C(/N)N[C@H]1[C@H](O)[C@@H](O)[C@H](O[C@@H]2O[C@@H](C)[C@](O)(C=O)[C@H]2O[C@@H]2O[C@@H](CO)[C@H](O)[C@@H](O)[C@@H]2NC)[C@@H](N/C(N)=N\[H])[C@@H]1O [STREPTOMYCIN] | – | 0.851 µM (≈ 0.495 µg/mL) | – | 0.851 µM (≈ 0.495 µg/mL) | 0.851 µM (≈ 0.495 µg/mL) | 0.851 µM (≈ 0.495 µg/mL) | – | – | – | – | – | – | – | –
24 | CN(C/C=C/C#CC(C)(C)C)Cc1cccc2ccccc12.Cl [TERBINAFINE HYDROCHLORIDE] | 0.617 µM | 1.51 µM | 229 µM | 0.302 µM | 245 µM | 245 µM | 0.676 µM | 155 µM | – | – | – | – | – | –
25 | CCS(=O)(=O)CCn1c([N+](=O)[O-])cnc1C [TINIDAZOLE] | – | 324 µM (≈ 80 µg/mL) | – | 603 µM (≈ 149 µg/mL) | 324 µM (≈ 80 µg/mL) | 162 µM (≈ 40.1 µg/mL) | – | – | – | – | – | – | – | –
